# Several values for one entry are separate records, joined by “and”; a condition that tells them apart may be missing. Equal values may be shown once.
# What was measured:
# [1] = pH of products dissolved in tank water; type: physicochemical; details: 0.8%; for pH after active added in unamended tank water: tank water pH 6.25
# Description: The water used throughout the projects is rainwater held in the dark in a plastic tank with stable pH value of 6.25. Controls were set up by replacing actives with tank water only.
# Products were dissolved in tank water before application to the agar plants. Tank water (pH 6.25) was adjusted to the respective pH levels prior to adding the actives to determine the change in pH caused by the actives.
# Tank water was adjusted to pH 4.0, 5.5, and 7.0 before adding sodium benzoate, sodium metabisulphite and WOB NP1, each at 0.8%.
# Tank water was adjusted to pH 7.0, 7.5 and 8.4 before adding sodium benzoate, sodium sulphite and WOB PH1, each at 0.8%.
# Botrytis cinerea [2] = assay: Curative activity: product-soaked discs laid on pathogen lawn on agar; type: cell-based; details: 0.8%, 24 hrs
# Description: (§1) The fungal and bacterial pathogens Erwinia carotovora (bacterial) and Botrytis cinerea (fungal) were cultured on to Nutrient Agar (NA) and potato dextrose agar (PDA), respectively and incubated at ambient temperature until sporulating or well grown.
# (§2) Multiple plates of PDA were inoculated with B. cinerea and allowed to sporulate. Multiple plates of NA were inoculated with E. carotovora and allowed to grow into a thick lawn.
# (§3) Plates of PDA and NA were inoculated with fungal spores and bacterial cells, respectively, and allowed to grow into a lawn covering the agar surfaces. Three replicates were used for each product and each pH. Following the results from the preliminary tests, pH 4.0 and 7.0 were selected for all further product pH tests.
# (§4) When the lawns were well grown and sporulating in the case of the fungal pathogen, five discs soaked with 200 uL of each product (sodium metabisulphite, sodium benzoate, WOB NP1, sodium sulphite, and WOB PH1) at appropriate pH levels were laid onto the sporulating surface or cell lawn surface for the fungal pathogen and the bacterial pathogen, respectively.
# (§5) The plates were incubated at ambient temperature (14-25° C.). Inhibition zones were measured at 24 hours, 48 hours and 7 days.
# (§6) Water was used unmodified and agars were made up of the 6 products using them at the pH resulting after dissolving to 0.8% concertation. Curative and preventative plates were prepared as described for Example 4 except that pHs were as dissolved (tank water not adjusted prior to dissolving/diluting product).
# (§7) The curative and preventative experiments were repeated according to the method of Example 5 using the liquid WOB NP1 and WOB PH 1 formulations and the solid actives sodium metabisulphite, sodium benzoate and sodium sulphite.
# (§8) The liquid WOB formulations were divided into 3 aliquots; one was used immediately—time zero; one stored at ambient temperate (15-27° C.) for one week and experiments repeated; one kept refrigerated (5° C.) for one week and experiments repeated.
# Erwinia carotovora [3] = assay: as above; type: cell-based; details: 0.8%, 24 hrs
# Description: as §1, §2, §3, §4, §5, §6, §7, §8
# Botrytis cinerea [4] = assay: Preventative activity: pathogen plugs laid on agar containing product; type: cell-based; details: Example 5; unadjusted water pH; 0.8%; WOB as liquid formulation; 24 hrs
# Description: as §1, §2
# (§9) Plates of agar containing each product (Na metabisulphite, Na Benzoate, WOB NP1 of Example 3) and (Na sulphite, Na Benzoate, WOB PH1) at concentrations equivalent to 0.8% concentration were made up and poured into sterile disposal Petri dishes. Three replicates for each product and pH (4.0 and 7.0) were used.
# (§10) Sterile agar discs covered with bacterial cells or fungal hyphae and spores were cut from respective plates of B. cinerea and E. carotovora. Three discs were each laid culture surface down onto the amended agar surface, incubated at ambient temperatures (14-25° C.) and observed for inhibition zones at 24 hours, 48 hours and 7 days.
# as §6, §7, §8
# Erwinia carotovora [5] = assay: as above; type: cell-based; details: Example 5; unadjusted water pH; 0.8%; WOB as liquid formulation; 24 hrs
# Description: as §1, §2, §9, §10, §6, §7, §8
# [6] = tank water adjusted to pH 4.0 before product added
# [7] = tank water adjusted to pH 5.5 before product added
# [8] = tank water adjusted to pH 7.0 before product added
# [9] = tank water adjusted to pH 7.5 before product added
# [10] = tank water adjusted to pH 8.4 before product added
# [11] = Example 5, unadjusted water pH, WOB as liquid formulation
Structure (SMILES),"pH of water after product added [1, 6]","pH of water after product added [1, 7]","pH of water after product added [1, 8]","pH of water after product added [1, 9]","pH of water after product added [1, 10]",pH after active added in unamended tank water [1],"Curative activity on the growth of B. cinerea (Botrytis cinerea [2]; Example 4, pH 4.0)","Curative activity on the growth of B. cinerea (Botrytis cinerea [2]; Example 4, pH 7.0)",Curative activity on the growth of B. cinerea (Botrytis cinerea [2]; [11]),"Curative activity on the growth of E. carotovora (Erwinia carotovora [3]; Example 4, pH 7.0)",Preventative activity on the growth of B. cinerea (Botrytis cinerea [4]),Preventative activity on the growth of E. carotovora (Erwinia carotovora [5]),"Curative activity on the growth of E. carotovora (Erwinia carotovora [3]; Example 4, pH 4.0)",Curative activity on the growth of E. carotovora (Erwinia carotovora [3]; [11])
"O=C([O-])c1ccccc1.[Na+] [Na Benzoate, sodium benzoate]",6.15,6.34,6.60 and 6.74,6.80,6.85,4.78,No obvious effect,No effect,No obvious effect,No effect,No obvious effect,No obvious effect,–,–
"O=S([O-])[O-].[Na+].[Na+] [Na sulphite, sodium sulphite]",–,–,6.78,6.78,6.99,5.24,–,No effect,–,–,–,–,–,–
"O=S([O-])S(=O)(=O)[O-].[Na+].[Na+] [Na metabisulphite, sodium metabisulphite]",3.75,5.52,6.14,–,–,4.74,No effect,–,No obvious effect,–,No obvious effect,No obvious effect,No effect,No obvious effect
